A short description of data set [1]: Spectrophotometric and NMR analysis of photoisomerization. Type of data set: physicochemical. The protocol:
UV and visible light sources of the electrophysiological apparatus were used for the spectrophotometric and NMR experiments. MPC088 samples were analyzed as DMSO solutions in a quartz cuvette (spectrophotometry) and a DMSO-d6 solution in a quartz NMR tube.
To test the stability of cis-MPC088 in darkness, a preparation of 30 μM MPC088 in oocyte Ringer solution that had been converted to predominantly cis form by a 5-min UV illumination was spectrophotometrically analyzed. The sample was subsequently kept in darkness at room temperature.
The UV-induced decrease in membrane current was analyzed by fitting a simple exponential decay function to the waveforms obtained and determining the exponential time constant (τ).

For a further data set, the target named is T1, α1β3(N265M)γ2 GABAARs (UniProt P28472+P62813, N290M).
T1 construct: expressed in transfected cells; host or cells: Xenopus oocytes
The experiment in a line: Two-electrode voltage clamp of α1β3(N265M)γ2 GABAAR-expressing oocytes. The format is cell-based. Conditions: 1 μM trans-MPC088 with 3 μM GABA (~EC2). The method, then: The activity of trans-dominant MPC088 was also tested at receptors containing the β-subunit substitution N265M, a mutation that markedly reduces the action of propofol both in vitro and in vivo (Jurd et al. (2003); Siegwart et al. (2002)). […] For each receptor type, illustrated responses are representative data obtained from a single oocyte.
(Two-electrode voltage clamp holds a large cell at a set potential and records current.)

Data set [2] has as its target T2, GABAAR subtype that consists of a pentameric assembly of p1 subunits (Homo sapiens, UniProt P24046).
T2 construct: expressed in transfected cells; host or cells: Xenopus oocytes
Put plainly: Oocytes expressing the GABAAR subtype of p1 subunits. Type of data set: cell-based.

Data set [3] deals with GABAARs of retinal ganglion cells. Put plainly: Whole-cell patch clamp of isolated retinal ganglion cells. The note with it: for peak amplitude of direct response relative to response to 200 μM GABA: alone. Type of data set: cell-based, rat. The protocol: To test whether native neuronal GABAARs respond to MPC088, retinal ganglion cells (RGCs), a cell type known to abundantly express GABAARs (Ishida et al. (1988); Fischer et al. (1998); Wässle et al. (1998); Rotolo et al. (2003)), were examined. […] The cis-dominant preparation was obtained by pre-treating trans-dominant MPC088 with UV light for 5 min.
Inset: Aggregate data for direct activation by MPC088.
Experiments were conducted on enzymatically dissociated ganglion cells obtained from adult Sprague-Dawley rats (male and female, 6-16 weeks of age) (Charles River Laboratories, Wilmington, Mass.). Procedures for euthanasia, isolation of the retina, and the dissociation of retinal cells were as described previously (Ramsey et al. (2007) except that the period of retinal cell dissociation was shortened from 40 min to 20 min. Isolated ganglion cells were identified on the basis of their morphological appearance and the presence of a large voltage-gated sodium current. Whole-cell patch-clamp techniques similar to those described (Ramsey et al. (2007)) were used to record membrane current responses to test agents. The patch pipette with a resistance of 8-12 MΩ was pulled in two stages using a micro-electrode puller (Model PP830, Narishige Group, Tokyo, Japan). The pipette was filled with an intracellular solution containing 95 mM CsCH3SO3, 20 mM TEA-Cl, 10 mM glutamic acid, 1 mM BAPTA, 10 mM HEPES, 8 mM phosphocreatine di(tris), 1 mM MgATP and 0.2 mM Na2GTP; pH adjusted to 7.2 with CsOH. Cells were clamped at 0 mV (Axopatch 200B amplifier; Axon Instruments), and experimental runs were controlled by pCLAMP system software (Axon Instruments). Electrophysiological data were obtained in response to test compounds dissolved in physiological saline (Ringer solution) that consisted of 135 mM NaCl, 5 mM KCl, 2 mM CaCl2, 2 mM MgCl2, 10 mM glucose, and 5 mM HEPES, pH 7.4. Supplementation of aqueous test solutions with MPC088 was carried out by adding an aliquot of a stock solution containing the compound dissolved in dimethyl sulfoxide (DMSO). In all experiments, the amount of carrier DMSO present in the applied test solution was <1% (v/v). Test solutions were delivered from separate reservoirs by a multi-channel perfusion system. The same UV-LED used in the oocyte experiments was used for UV illumination of MPC088-supplemented test solutions. For preparation of cis-dominant MPC088, the test solution of initially trans-dominant compound underwent a 5-min UV illumination prior to its placement in the perfusion reservoir. All preparative procedures were performed in the dark, and the reservoirs and perfusion lines were light-protected with aluminum foil. As in the oocyte experiments, data were analyzed with Clampfit and plotted with Origin. Unless otherwise stated, numerical data from replicate experiments are presented as mean±SD, and all statistical analyses of data obtained from oocytes and from retinal ganglion cells employed a two-sample t-test.
A general note: In patch-clamp work, channel activity is measured electrically.

The subject of data set [4] is GABAARs of isolated bipolar cells of rat retina. Put plainly: Whole-cell recording of isolated retinal bipolar cells. Type of data set: cell-based. From the text:
Data obtained with trans-MPC088 indicated substantial GABAAR potentiating activity by trans-MPC088 (FIG. 61).

The subject of data set [5] is GABAARs of cerebellar PNs. Put plainly: Test for direct agonist activity on Purkinje neurons (recirculating MPC088, no exogenous GABA). Type of data set: cell-based, mouse. The method, then: To test for direct agonist activity of MPC088 on PNs, cerebellar slices were perfused with recirculating 30 μM MPC088 (the maximal MPC088 concentration that could be reliably maintained solubilized in bicarbonate-buffered solution). MPC088 was converted to cis-dominant form by a 2-min exposure to UV light (LED, 365 nm/160 mW, Mouser, Inc., Mansfield, Tex.; LED driver, 700 mA BuckPuck DC Driver, Quadica Developments, Inc., Brantford, Ontario, Canada), before its dilution into the recirculating external solution. The same LED was then used to continuously UV-illuminate the recirculating solution for the duration of the experiment. Whole-cell voltage clamp recordings were obtained from PNs and determined the change in membrane current produced by alternating blue and UV illumination of the slice, as in the FIG. 40 experiments. […] The temporal sequence of illumination differed among the experiments (e.g., only the cell in a received multiple blue/UV exposures), but the data plotted are the amplitudes from the blue to UV transition (in the case of the cell in a, this is the blue/UV transition from the first of the three exposures). Yellow-filled data points indicate results from the experiment in a. Each data point is the average obtained from 4-10 consecutive recordings. […] Error bars represent the SEM (FIG. 42b).

The mark [6] stands for this setting: 2.0 mM in DMSO-d6, before illumination.
Where [7] appears, read: after UV illumination for 5 min.
The mark [8] stands for this setting: after UV, then visible light for 10 min.

Here are results for 1 compound from patent US9399145B2, “Nanoscale neuromodulating platform for retina neuron activation apparatus and method” (The Board of Trustees of the University of Illinois, priority 2005, dated 2016).

On to `CC(C)c1cc(CCCC(=O)NCc2ccc(/N=N/c3ccc(C(=O)NCCN)cc3)cc2)cc(C(C)C)c1O` [MPC088, (E)-N-(2-Aminoethyl)-4-((4-((4-(4-hydroxy-3,5-diisopropylphenyl)butanamido)methyl)phenyl)diazenyl)benzamide], for which the “cis-isomer content (1H NMR)” value in data set [1] (setting [6]) was found to be 6%; in data set [1] (setting [7]), 91%; in data set [1] (setting [8]), 19%. Besides, the entries for the “trans-isomer content (1H NMR)” value in data set [1] (setting [6]), in data set [1] (setting [7]) and in data set [1] (setting [8]) were 94%, 9% and 81%, respectively. The “time constant of absorbance change at 338 nm” value in data set [1] (UV light, nominal intensity) came out at 1.7 ± 0.3 s; in data set [1] (reduced-intensity UV light (10% of nominal)) it was 22 ± 3 s; in data set [1] (visible light), 36 ± 2 s. On α1β3(N265M)γ2 GABAARs, the response enhancement worked out at 2.9±0.8 fold. Moreover, the “potentiating and direct agonist activity” value in data set [2] is “lacked both potentiating and direct agonist activity”. The “potentiation of the response elicited by 2 μM GABA” value in data set [3] (10 μM trans-dominant) was “approximately 5 fold”. Besides, the entries for the “peak amplitude of direct response relative to response to 200 μM GABA” value in data set [3] (30 μM trans-dominant) and in data set [3] (60 μM trans-dominant) were 5% and 43±9%, respectively. Also, the “reduction of agonist activity by UV pre-treatment” value in data set [3] (60 μM, UV pre-treated (cis-dominant) vs trans-dominant) was determined as 88±6%. Besides, the “potentiating factor (peak amplitude relative to the 10 μM GABA response)” value in data set [4] (5 μM with 10 μM GABA and 100 μM TPMPA) is given as 1.73±0.01; in data set [4] (15 μM with 10 μM GABA and 100 μM TPMPA), 3.26±0.42. The “average light-evoked current change” value in data set [5] (30 μM recirculating, blue/UV illumination, subset of 28 of 44 cells with change >18 pA) is reported as 80±13 pA. In data set [5] (concentrations comparable to or lower than 30 μM), the “mode of action in cerebellar tissue” value is listed as “modulatory (endogenous GABA-dependent) rather than agonistic”.
